Results on 2 compounds are retold here after US8785594B2, “Glycoproteins and glycosylated cells and a method for the preparation of the same” (Glycom A/S, priority 2007, dated 2014).

Type in all cases: cell-based
The subject of series [1] is B16.BL6 melanoma cells. The experiment in a line: Cell concentration and viability after conjugation, trypan blue (Example 11). On the procedure: Two flasks (300 cm^2) (TPP, Trasadingen Switzerland) of confluent B16.BL6 melanoma cells grown in DMEM containing 10% fetal calf serum (without P/S) at 37.5° C. in 5% CO2 were used for this experiment. Growth medium was removed from the cells and 25 mL of PBS (without Mg^2+ and Ca^2+) (Gibco Invitrogen, Taastrup, Denmark) was added to the cells and immediately removed again. Another 10 mL of PBS was added and removed, before cells were harvested with Cell Dissociation Solution C5914 (Sigma-aldrich, Saint Louis, Mo.) (3 mL per flask) and transferred to 10 mL tubes (TPP, Trasadingen Switzerland). The cells were centrifuged for 5 minutes at 300 G at 20° C. and the supernatant was discarded. Subsequently, cells were washed in PBS (without Mg^2+ and Ca^2+), centrifuged as above and resuspended in PBS (without Mg^2+ and Ca^2+). The concentration of the cell suspension was determined.
Five hundred mg of alpha-Gal trisaccharide-carbamate (9) was dissolved in PBS (without Mg^2+ and Ca^2+) (Gibco Invitrogen, Taastrup, Denmark) and passed through a sterile filter (Sartorius Minisart®, 0.20 my) (Sartorius, Goettingen, Germany). Eight different concentrations of conjugate were prepared. Two mL of each conjugate dilution was added to a flask with 2 mL of PBS (without Mg^2+ and Ca^2+) and 600 μl of cell suspension containing 10^6 B16.BL6 cells. The final volume of the flasks was 4.6 mL. The flasks were numbered 1 to 10. Flasks 1 and 10 contained no conjugate and served as controls. The cells were incubated with the conjugate for 3 hours and 25 minutes at 37° C. and 5% CO2.
After conjugation, cells from conjugation reaction 1 (non-conjugated cells), 2, 4, 6 and 8 were harvested with 10 mL of Cell Dissociation Solution C5914 (Sigma-Aldrich, Saint Louis, Mo.) and transferred to 10 mL tubes (TPP, Trasadingen Switzerland). Cells were centrifuged for 5 minutes at 300 G at 20° C. and resuspended in PBS (without Mg^2+ and Ca^2+). Finally, cells were centrifuged as before and resuspended in 100 μl TBS with 1% BSA. Cell concentration and viability was determined by microscopic evaluation of trypan blue stained cell samples. Cells from conjugation reaction 3, 5, 7, 9 and 10 (non-conjugated cells), were harvested the following day as described above. The cells were centrifuged once for 5 minutes at 300 G at 20° C. and resuspended in 100 μl TBS with 1% BSA. Cell concentration and viability was determined by microscopic evaluation of trypan blue stained cell samples.

The test system of series [2] is B16.BL6 melanoma cells. Kind of series: Flow cytometry with FITC-labelled GS1B4 (Example 15). Conditions: all conjugation reactions, 10 μg-20 mg regular probe. The procedure: Radioactive labelled and regular alpha-Gal trisaccharide-carbamate (9) probe (labeled on the cyclic carbamate carbon) was dissolved in HBSS containing D-glucose (without Mg^2+ and Ca^2+) (Gibco Invitrogen, Taastrup, Denmark) and passed through sterile filters (0.2 μm Supor® Acrodisc® 13, Gelman Sciences, Ann Arbor, Mich.). Eight different concentrations of radioactive labelled alpha-Gal trisaccharide-carbamate (9) (1 μg, 10 μg, 100 μg, 1 mg, 5 mg, 10 mg, 15 mg and 20 mg) and […] concentrations of regular “Glycom conjugate” (10 μg, 100 μg, 1 mg, 5 mg, 10 mg, 15 mg and 20 mg) were used. Twelve flasks (300 cm^2) (TPP, Trasadingen Switzerland) were prepared, each containing 10×10^6 B16.BL6 cells, for conjugation with the radioactive labelled trisaccharide probe, and 8 flasks (150 cm^2) (TPP, Trasadingen Switzerland) were prepared, each containing 5×10^6 B16.BL6 cells, for conjugation with the non-radioactive conjugate. […] This was repeated 3 times before cell concentration and viability was determined by microscopic evaluation of trypan blue stained cell samples.
Cells conjugated with regular trisaccharide probe were analysed by flow cytometry. […] Mean fluorescence intensity of cells stained with GS1B4 was measured by flow cytometry.
(Flow cytometry measures light scatter and fluorescence of single cells or particles in a stream.)

Series [3] deals with B16.BL6 melanoma cells. Kind of series: Scintillation, epitopes per cell (Example 15). On the procedure:
Radioactive labelled and regular alpha-Gal trisaccharide-carbamate (9) probe (labeled on the cyclic carbamate carbon) was dissolved in HBSS containing D-glucose (without Mg^2+ and Ca^2+) (Gibco Invitrogen, Taastrup, Denmark) and passed through sterile filters (0.2 μm Supor® Acrodisc® 13, Gelman Sciences, Ann Arbor, Mich.). Eight different concentrations of radioactive labelled alpha-Gal trisaccharide-carbamate (9) (1 μg, 10 μg, 100 μg, 1 mg, 5 mg, 10 mg, 15 mg and 20 mg) and […] of regular “Glycom conjugate” (10 μg, 100 μg, 1 mg, 5 mg, 10 mg, 15 mg and 20 mg) were used. Twelve flasks (300 cm^2) (TPP, Trasadingen Switzerland) were prepared, each containing 10×10^6 B16.BL6 cells, for conjugation with the radioactive labelled trisaccharide probe, and 8 flasks (150 cm^2) (TPP, Trasadingen Switzerland) were prepared, each containing 5×10^6 B16.BL6 cells, for conjugation with the non-radioactive conjugate. The Glycom conjugate was added and the total volume was adjusted with HBSS containing D-glucose (without Mg^2+ and Ca^2+) so that each large flask (300 cm^2) contained a final volume of 20 mL and each medium flask (150 cm^2) contained a final volume of 10 mL. Cells were incubated with the “Glycom conjugate” for 1.5 hours at 37° C. After conjugation, the supernatant from each flask was transferred to separate 50 mL tubes (TPP, Trasadingen Switzerland). The cells were harvested with Cell Dissociation Solution (10 mL per large flask and 5 mL per medium flask) (Sigma-aldrich, Saint Louis, Mo.) and transferred to the 50 mL tubes containing the supernatant. The cells were centrifuged for 5 minutes at 300 G at 20° C. and resuspended in 5 mL of PBS (without Mg^2+ and Ca^2+). This was repeated 3 times before cell concentration and viability was determined by microscopic evaluation of trypan blue stained cell samples.
Cells incubated with radioactive labelled trisaccharide probe were centrifuged for 5 minutes at 1000 G at 20° C. The supernatant was discharged and the remaining pellets were dried. Subsequently, the pellets were dissolved in 450 μl Mili-Q H2O and 1.5 mL of scintillation fluid was added. Standards for the scintillation were made by adding 500 pCi, 0.5 pCi and 0 pCi to the 3 samples of control cells. The samples were stored at room temperature for 3 days, before the cell suspensions were transferred to scintillation vials and counted.

Where [4] appears, read: reaction 2, 200 mg conjugate, 10^6 cells, PBS, 3 h 25 min 37° C.
The mark [5] stands for this setting: reaction 3, 100 mg conjugate, measured 1 day after the conjugation procedure.
The mark [6] stands for this setting: reaction 5, 20 mg conjugate, measured 1 day after the conjugation procedure.
Setting [7] is: reaction 7, 5 mg conjugate, measured 1 day after the conjugation procedure.
Setting [8] is: reaction 9, 1 mg conjugate, measured 1 day after the conjugation procedure.

As for `O=C1N[C@@H]2O[C@H](CO)[C@@H](O[C@@H]3O[C@H](CO)[C@H](O)[C@H](O[C@H]4O[C@H](CO)[C@H](O)[C@H](O)[C@H]4O)[C@H]3O)[C@H](O)[C@H]2O1` [Compound 9, alpha-Gal trisaccharide-carbamate], the Cell concentration in the series on B16.BL6 melanoma cells [1] (setting [4]) is 3.50 × 10^6 cells/mL; in the series on B16.BL6 melanoma cells [1] (setting [5]) it was 3.08 × 10^6 cells/mL; with B16.BL6 melanoma cells [1] (reaction 4, 50 mg conjugate), 3.16 × 10^6 cells/mL; in the series with B16.BL6 melanoma cells [1] (setting [6]), 1.90 × 10^6 cells/mL; in the series on B16.BL6 melanoma cells [1] (reaction 6, 10 mg conjugate), 2.26 × 10^6 cells/mL; in the series on B16.BL6 melanoma cells [1] (setting [7]), 2.02 × 10^6 cells/mL. Besides, the Cell concentration with B16.BL6 melanoma cells [1] (reaction 8, 2 mg conjugate) was 2.22 × 10^6 cells/mL; in the series on B16.BL6 melanoma cells [1] (setting [8]), 2.12 × 10^6 cells/mL. For the same compound, the Cell viability in the series on B16.BL6 melanoma cells [1] (setting [4]) is given as 58.9%; in the series on B16.BL6 melanoma cells [1] (setting [5]) it was 65.6%; in the series on B16.BL6 melanoma cells [1] (reaction 4, 50 mg conjugate) it was 1.9%; with B16.BL6 melanoma cells [1] (setting [6]), 0.0%; with B16.BL6 melanoma cells [1] (reaction 6, 10 mg conjugate), 16.8%; in the series on B16.BL6 melanoma cells [1] (setting [7]) it was 34.7%. Also, the Cell viability in the series on B16.BL6 melanoma cells [1] (reaction 8, 2 mg conjugate) turned out to be 8.1%; in the series on B16.BL6 melanoma cells [1] (setting [8]) it was 16.0%. The “Binding of FITC-labelled GS1B4 to cells” value with B16.BL6 melanoma cells [2] is given as “no binding above background levels”.
As for `O=[13C]1N[C@@H]2O[C@H](CO)[C@@H](O[C@@H]3O[C@H](CO)[C@H](O)[C@H](O[C@H]4O[C@H](CO)[C@H](O)[C@H](O)[C@H]4O)[C@H]3O)[C@H](O)[C@H]2O1` [radioactive labelled conjugate], the Epitopes per cell in the series with B16.BL6 melanoma cells [3] (1 μg conjugate added) is listed as 1.0 × 10^6; with B16.BL6 melanoma cells [3] (10 μg conjugate added), 0.6 × 10^6; in the series with B16.BL6 melanoma cells [3] (100 μg conjugate added), 6.8 × 10^6; with B16.BL6 melanoma cells [3] (1 mg conjugate added) it was 33.9 × 10^6; with B16.BL6 melanoma cells [3] (5 mg conjugate added) it was 175.3 × 10^6; in the series with B16.BL6 melanoma cells [3] (15 mg conjugate added) it was 501.2 × 10^6. Besides, the Epitopes per cell in the series with B16.BL6 melanoma cells [3] (20 mg conjugate added) is listed as 515.2 × 10^6. Also, the “Relation of scintillation counts to dose of conjugate” value in the series with B16.BL6 melanoma cells [3] (1 μg-20 mg) was “positive correlation”.
